ChEMBL document CHEMBL3785018, “Pharmacokinetics/pharmacodynamics of acetaminophen analgesia in Japanese patients with chronic pain” (Biol Pharm Bull, 2007)
Converted amounts (≈) assume the structure as drawn.

Legend:
[1] = AUC (0 to infinity) in Japanese healthy volunteer (5 volunteers) at 1000 mg, po by HPLC method; assay type: ADME, organism-based; set-up: dose 1000 mg, route oral, time infinity; conditions: human, in vivo
[2] = Apparent volume of distribution in Japanese healthy volunteer (5 volunteers) at 1000 mg, po by HPLC method; assay type: ADME, organism-based; conditions: human, in vivo
[3] = Cmax in Japanese healthy volunteer (5 volunteers) at 1000 mg, po by HPLC method; assay type: ADME, organism-based; set-up: dose 1000 mg, route oral; conditions: human, in vivo
[4] = Tmax in Japanese healthy volunteer (5 volunteers) at 1000 mg, po by HPLC method; assay type: ADME, organism-based; conditions: human, in vivo
Homo sapiens [5] = experiment: AUC (0 to infinity) in Japanese healthy volunteer (5 volunteers) assessed as acetaminophen-cysteine at 1000 mg, po by HPLC method; assay type: ADME, organism-based; set-up: dose 1000 mg, time infinity, route oral; conditions: in vivo
Homo sapiens [6] = experiment: AUC (0 to infinity) in Japanese healthy volunteer (5 volunteers) assessed as acetaminophen-glucuronide at 1000 mg, po by HPLC method; assay type: ADME, organism-based; set-up: dose 1000 mg, time infinity, route oral; conditions: in vivo
Homo sapiens [7] = experiment: AUC (0 to infinity) in Japanese healthy volunteer (5 volunteers) assessed as acetaminophen-sulfate at 1000 mg, po by HPLC method; assay type: ADME, organism-based; set-up: dose 1000 mg, route oral, time infinity; conditions: in vivo
Homo sapiens [8] = experiment: Toxicity in Japanese healthy volunteer (5 volunteers) at 1000 mg, po; assay type: organism-based; conditions: in vivo
[9] = Apparent volume of distribution in Japanese chronic pain patient (5 patients) at 800 +/- 141 mg, po administered as single dose by fluorescence polarization immunoassay; assay type: ADME, organism-based; conditions: human, in vivo
Homo sapiens [10] = experiment: Analgesic activity in Japanese chronic pain patient (5 patients) assessed as maximum pain relief score at 800 +/- 141 mg, po administered as single dose measured over 15 mins to 6 hrs; assay type: functional
Homo sapiens [11] = experiment: Analgesic activity in po dosed Japanese chronic pain patient (5 patients) assessed as compound dose require to cause 50% maximum pain relief score administered as single dose measured over 15 mins to 6 hrs; assay type: functional, organism-based
Homo sapiens [12] = experiment: Analgesic activity in Japanese chronic pain patient (5 patients) assessed as sigmoid factor at 800 +/- 141 mg, po administered as single dose measured over 15 mins to 6 hrs; assay type: functional
[13] = Tmax in Japanese chronic pain patient at 600 to 1000 mg, po administered as single dose by fluorescence polarization immunoassay; assay type: ADME, organism-based; conditions: human, in vivo
Homo sapiens [14] = experiment: Toxicity in Japanese chronic pain patient at 600 to 1000 mg, po administered as single dose; assay type: organism-based; conditions: in vivo
[15] = Drug uptake in Japanese chronic pain patient at 600 to 1000 mg, po administered as single dose after 4 hrs by fluorescence polarization immunoassay; assay type: ADME, organism-based; conditions: human, in vivo, read-out: Drug uptake
[16] = Drug uptake in human after 4 hrs; assay type: ADME, organism-based; conditions: in vivo, read-out: Drug uptake
Homo sapiens [17] = experiment: Drug metabolism in Japanese healthy volunteer assessed as acetaminophen-cysteine metabolite formation at 1000 mg, po by HPLC method; assay type: ADME, organism-based; conditions: in vivo
Homo sapiens [18] = experiment: Drug level in Japanese healthy volunteer treated with acetaminophen at 1000 mg, po by HPLC method; assay type: ADME, organism-based; conditions: in vivo

AUC(0-inf) [1] [ng·h/mL]	Vd/F [2] [L]	Cmax [3] [ng/mL]	Tmax [4] [min]	AUC (Homo sapiens [5]) [ng·h/mL]	AUC (Homo sapiens [6]) [ng·h/mL]	AUC (Homo sapiens [7]) [ng·h/mL]	Vd/F [9] [L]	EC50 (Homo sapiens [11]) [µg/mL]	Tmax [13] [min]	concentration at 4 h [15] [ng/mL]	concentration at 4 h [16] [ng/mL]	Drug metabolism (Homo sapiens [17]) [µg/mL]	Drug metabolism (Homo sapiens [18])	SMILES	Activity (Homo sapiens [8])	Emax (Homo sapiens [10])	Activity (Homo sapiens [12])	Activity (Homo sapiens [14])
77800	69.7	17700	30	3700	66000	21000	30.9	2 (≈ 13.2 µM)	30	6700	120000	< 0.2	–	CC(=O)Nc1ccc(O)cc1 [ACETAMINOPHEN]	Non-toxic	4.6	1.3	Non-toxic
–	–	–	–	–	–	–	–	–	–	–	–	–	metabolite_detected	CC(=O)Nc1ccc(O)c(SC[C@H](N)C(=O)O)c1	–	–	–	–
